Data on 3 molecules can be found in ChEMBL document CHEMBL5678818, “Discovery of potent SOS1 inhibitors that block RAS activation via disruption of the RAS-SOS1 interaction” (Proc Natl Acad Sci U S A, 2019).

Assay [1] has as its target T1, Muscle, skeletal receptor tyrosine-protein kinase (Homo sapiens) (UniProt O15146).
T1 sequence (whole entry): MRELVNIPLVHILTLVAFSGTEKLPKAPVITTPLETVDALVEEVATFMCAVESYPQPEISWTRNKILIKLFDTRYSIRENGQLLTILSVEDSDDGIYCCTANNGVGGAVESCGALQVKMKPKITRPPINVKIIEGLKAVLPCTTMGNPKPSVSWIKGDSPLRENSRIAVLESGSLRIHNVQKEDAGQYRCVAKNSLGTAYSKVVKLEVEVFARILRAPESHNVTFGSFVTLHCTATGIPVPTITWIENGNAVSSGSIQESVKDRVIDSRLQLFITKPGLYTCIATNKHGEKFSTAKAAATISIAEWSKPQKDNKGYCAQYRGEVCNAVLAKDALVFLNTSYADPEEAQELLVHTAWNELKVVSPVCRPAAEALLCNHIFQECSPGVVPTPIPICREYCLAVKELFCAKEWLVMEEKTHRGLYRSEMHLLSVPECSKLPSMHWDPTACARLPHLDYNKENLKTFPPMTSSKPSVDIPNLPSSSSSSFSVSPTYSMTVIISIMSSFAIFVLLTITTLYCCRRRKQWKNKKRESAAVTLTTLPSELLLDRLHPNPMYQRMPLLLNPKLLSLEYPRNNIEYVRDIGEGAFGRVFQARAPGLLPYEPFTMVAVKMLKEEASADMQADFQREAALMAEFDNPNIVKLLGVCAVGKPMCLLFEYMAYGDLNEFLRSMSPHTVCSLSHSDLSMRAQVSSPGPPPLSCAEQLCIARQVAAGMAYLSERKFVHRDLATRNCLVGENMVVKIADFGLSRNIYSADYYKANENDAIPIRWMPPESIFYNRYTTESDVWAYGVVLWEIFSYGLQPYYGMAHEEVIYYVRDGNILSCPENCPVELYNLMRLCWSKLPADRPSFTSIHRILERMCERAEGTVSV
Briefly: Inhibition of MUSK (unknown origin) assessed as residual activity at 1000 nM by KINOMEscan analysis relative to control.

The target in assay [2] is T2, Mitogen-activated protein kinase 13 (Homo sapiens) (UniProt O15264).
T2 sequence (whole entry): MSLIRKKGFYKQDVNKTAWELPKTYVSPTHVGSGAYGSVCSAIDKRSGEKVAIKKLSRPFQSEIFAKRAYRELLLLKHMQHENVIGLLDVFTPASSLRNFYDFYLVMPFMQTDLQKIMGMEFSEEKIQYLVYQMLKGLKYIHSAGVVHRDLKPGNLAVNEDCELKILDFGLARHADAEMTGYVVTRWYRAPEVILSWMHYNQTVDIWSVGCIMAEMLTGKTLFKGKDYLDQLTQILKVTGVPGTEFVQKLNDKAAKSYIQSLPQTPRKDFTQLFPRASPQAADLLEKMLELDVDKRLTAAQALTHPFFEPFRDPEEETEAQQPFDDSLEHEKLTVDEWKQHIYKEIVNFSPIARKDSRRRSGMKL
Nature of the assay: Inhibition of p38-delta (unknown origin) assessed as residual activity at 1000 nM by KINOMEscan analysis relative to control.

Assay [3] concerns the target Tyrosine-protein kinase JAK1 (Homo sapiens) (UniProt P23458). Nature of the assay: Inhibition of JAK1 JH2 pseudokinase domain (unknown origin) assessed as residual activity at 1000 nM by KINOMEscan analysis relative to control.
The target of assay [4] is TGF-beta receptor type-2 (Homo sapiens) (UniProt P37173). Nature of the assay: Inhibition of TGFBR2 (unknown origin) assessed as residual activity at 1000 nM by KINOMEscan analysis relative to control.
TGF-beta receptor type-2 (Homo sapiens), sequence (P37173 whole entry): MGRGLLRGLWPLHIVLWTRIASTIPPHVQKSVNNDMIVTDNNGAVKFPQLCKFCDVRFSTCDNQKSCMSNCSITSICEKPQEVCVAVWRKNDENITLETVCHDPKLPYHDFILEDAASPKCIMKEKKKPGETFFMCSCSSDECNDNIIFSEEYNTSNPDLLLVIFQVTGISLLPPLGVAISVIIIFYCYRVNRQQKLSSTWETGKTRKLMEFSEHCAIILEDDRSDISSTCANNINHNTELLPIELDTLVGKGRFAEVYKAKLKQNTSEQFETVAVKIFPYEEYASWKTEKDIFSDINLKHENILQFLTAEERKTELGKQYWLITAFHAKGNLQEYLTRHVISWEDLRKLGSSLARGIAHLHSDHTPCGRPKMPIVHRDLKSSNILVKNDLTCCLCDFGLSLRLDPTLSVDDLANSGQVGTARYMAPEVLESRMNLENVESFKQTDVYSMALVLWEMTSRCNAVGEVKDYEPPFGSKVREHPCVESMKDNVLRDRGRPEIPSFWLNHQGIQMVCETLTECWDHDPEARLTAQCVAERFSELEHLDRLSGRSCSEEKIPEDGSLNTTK
Assay [5] deals with Macrophage colony-stimulating factor 1 receptor (Homo sapiens) (UniProt P07333). Briefly: Inhibition of CSF1R (unknown origin) assessed as residual activity at 1000 nM by KINOMEscan analysis relative to control.
Macrophage colony-stimulating factor 1 receptor (Homo sapiens), sequence (P07333 whole entry): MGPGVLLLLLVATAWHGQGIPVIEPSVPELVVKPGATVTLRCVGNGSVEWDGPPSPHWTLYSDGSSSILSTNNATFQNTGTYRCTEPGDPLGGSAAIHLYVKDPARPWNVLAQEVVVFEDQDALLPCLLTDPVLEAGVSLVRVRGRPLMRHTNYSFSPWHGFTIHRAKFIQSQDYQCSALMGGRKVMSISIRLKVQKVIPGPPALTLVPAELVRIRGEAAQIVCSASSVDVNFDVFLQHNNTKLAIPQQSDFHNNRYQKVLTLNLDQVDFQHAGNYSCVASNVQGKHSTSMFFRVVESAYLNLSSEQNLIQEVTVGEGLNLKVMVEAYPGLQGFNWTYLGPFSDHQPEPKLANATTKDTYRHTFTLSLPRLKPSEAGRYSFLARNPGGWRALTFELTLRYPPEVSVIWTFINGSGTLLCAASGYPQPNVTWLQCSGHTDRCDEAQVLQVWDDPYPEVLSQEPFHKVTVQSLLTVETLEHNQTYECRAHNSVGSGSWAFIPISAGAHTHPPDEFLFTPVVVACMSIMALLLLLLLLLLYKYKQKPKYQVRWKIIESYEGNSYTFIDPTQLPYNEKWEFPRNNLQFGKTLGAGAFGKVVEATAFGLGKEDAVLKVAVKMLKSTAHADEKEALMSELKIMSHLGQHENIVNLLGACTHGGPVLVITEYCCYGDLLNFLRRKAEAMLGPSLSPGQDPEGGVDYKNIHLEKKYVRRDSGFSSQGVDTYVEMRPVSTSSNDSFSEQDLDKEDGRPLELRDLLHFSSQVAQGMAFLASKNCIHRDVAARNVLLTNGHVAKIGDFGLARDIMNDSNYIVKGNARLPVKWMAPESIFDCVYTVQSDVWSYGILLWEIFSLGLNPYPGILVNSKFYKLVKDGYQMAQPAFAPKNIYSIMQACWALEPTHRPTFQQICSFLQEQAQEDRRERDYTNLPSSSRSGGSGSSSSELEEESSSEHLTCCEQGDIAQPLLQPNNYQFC
Assay [6] concerns the target T3, Son of sevenless homolog 1 (Homo sapiens) (UniProt Q07889).
T3 sequence (whole entry): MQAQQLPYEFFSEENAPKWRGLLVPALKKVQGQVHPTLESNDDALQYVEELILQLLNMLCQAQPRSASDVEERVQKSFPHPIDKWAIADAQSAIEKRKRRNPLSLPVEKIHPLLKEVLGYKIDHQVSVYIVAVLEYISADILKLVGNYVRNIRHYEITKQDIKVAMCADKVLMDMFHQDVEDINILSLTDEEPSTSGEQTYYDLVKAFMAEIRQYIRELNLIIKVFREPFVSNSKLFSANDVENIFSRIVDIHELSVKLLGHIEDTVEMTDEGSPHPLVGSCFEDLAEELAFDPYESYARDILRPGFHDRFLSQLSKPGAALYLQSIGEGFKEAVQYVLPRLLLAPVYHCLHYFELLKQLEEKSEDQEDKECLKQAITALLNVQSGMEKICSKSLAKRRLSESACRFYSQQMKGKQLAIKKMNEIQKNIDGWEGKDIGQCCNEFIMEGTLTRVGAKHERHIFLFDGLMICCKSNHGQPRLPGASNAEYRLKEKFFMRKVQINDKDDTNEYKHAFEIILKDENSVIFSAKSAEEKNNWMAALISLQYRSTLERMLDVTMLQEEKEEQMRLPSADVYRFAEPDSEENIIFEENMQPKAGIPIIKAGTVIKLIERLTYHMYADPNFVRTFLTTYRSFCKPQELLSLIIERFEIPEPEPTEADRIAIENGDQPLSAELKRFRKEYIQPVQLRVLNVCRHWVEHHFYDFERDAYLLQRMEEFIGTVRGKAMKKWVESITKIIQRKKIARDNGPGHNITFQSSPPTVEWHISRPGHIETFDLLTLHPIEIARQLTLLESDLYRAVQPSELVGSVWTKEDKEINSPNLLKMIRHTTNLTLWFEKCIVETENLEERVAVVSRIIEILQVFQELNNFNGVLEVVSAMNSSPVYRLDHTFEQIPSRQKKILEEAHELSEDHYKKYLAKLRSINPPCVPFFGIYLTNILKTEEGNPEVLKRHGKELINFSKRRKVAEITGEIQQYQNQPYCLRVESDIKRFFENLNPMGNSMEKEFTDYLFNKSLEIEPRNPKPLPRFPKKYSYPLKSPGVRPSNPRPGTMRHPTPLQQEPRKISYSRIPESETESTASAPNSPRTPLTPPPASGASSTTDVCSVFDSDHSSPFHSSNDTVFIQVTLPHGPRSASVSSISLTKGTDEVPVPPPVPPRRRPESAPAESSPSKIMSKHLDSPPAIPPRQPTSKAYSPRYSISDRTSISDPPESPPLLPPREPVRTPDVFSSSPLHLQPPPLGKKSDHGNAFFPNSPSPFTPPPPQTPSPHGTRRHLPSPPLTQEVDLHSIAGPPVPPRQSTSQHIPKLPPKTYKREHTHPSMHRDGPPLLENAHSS
Nature of the assay: Binding affinity to N-terminal His10-tagged wild-type recombinant human SOS1 catalytic domain (564 to 1049 residues) expressed in Escherichia coli assessed as change in entropy by ITC analysis. On the technique in general: In ITC the heat of successive injections is recorded.

Tyrosine-protein kinase JAK1 (Homo sapiens), sequence (P23458 whole entry, the tested form may be a part): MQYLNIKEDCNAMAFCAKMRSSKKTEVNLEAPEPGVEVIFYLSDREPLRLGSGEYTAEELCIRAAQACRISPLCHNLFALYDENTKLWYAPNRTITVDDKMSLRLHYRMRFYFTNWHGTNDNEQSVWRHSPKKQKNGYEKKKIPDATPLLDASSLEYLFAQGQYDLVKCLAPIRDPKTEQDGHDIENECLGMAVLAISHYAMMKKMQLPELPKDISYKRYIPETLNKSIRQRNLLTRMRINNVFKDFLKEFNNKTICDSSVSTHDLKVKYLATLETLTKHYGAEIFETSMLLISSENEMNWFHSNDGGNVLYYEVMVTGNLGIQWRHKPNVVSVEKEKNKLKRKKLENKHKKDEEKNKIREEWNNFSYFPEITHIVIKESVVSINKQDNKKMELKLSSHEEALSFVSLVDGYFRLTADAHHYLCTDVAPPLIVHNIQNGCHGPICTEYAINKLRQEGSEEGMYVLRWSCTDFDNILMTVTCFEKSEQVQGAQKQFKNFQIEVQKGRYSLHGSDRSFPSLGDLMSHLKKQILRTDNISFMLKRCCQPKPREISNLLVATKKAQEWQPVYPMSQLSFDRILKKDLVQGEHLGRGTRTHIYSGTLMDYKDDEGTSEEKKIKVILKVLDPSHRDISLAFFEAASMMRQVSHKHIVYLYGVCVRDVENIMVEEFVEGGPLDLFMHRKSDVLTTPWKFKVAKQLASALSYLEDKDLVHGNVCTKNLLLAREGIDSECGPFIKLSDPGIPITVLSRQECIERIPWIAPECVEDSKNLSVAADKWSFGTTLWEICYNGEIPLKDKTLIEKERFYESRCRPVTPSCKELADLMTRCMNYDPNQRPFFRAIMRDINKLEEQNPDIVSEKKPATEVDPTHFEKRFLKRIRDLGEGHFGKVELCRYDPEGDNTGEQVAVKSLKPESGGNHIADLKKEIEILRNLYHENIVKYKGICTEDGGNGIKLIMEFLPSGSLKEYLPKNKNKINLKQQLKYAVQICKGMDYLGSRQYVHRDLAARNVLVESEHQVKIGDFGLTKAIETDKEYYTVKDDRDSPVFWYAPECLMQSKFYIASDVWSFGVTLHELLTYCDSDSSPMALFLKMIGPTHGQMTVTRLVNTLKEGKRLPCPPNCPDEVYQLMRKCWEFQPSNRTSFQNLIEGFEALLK

Turning to `COc1cc2nc(C)nc(N[C@H](C)c3cccc(-c4cn[nH]c4)c3)c2cc1OC`, the Activity in assay [1] is 91%; in assay [2], 90%; in assay [3], 78%; in assay [4] it was 93%; in assay [5], 94%.

Turning to `COc1cc2ncnc(N[C@H](C)c3cccc4ccccc34)c2cc1OC`, the -TdeltaS in assay [6] came to 5.5 kcal/mol. Moreover, the Activity in assay [1] was 97%; in assay [2] it was 100%; in assay [3], 100%; in assay [4], 100%; in assay [5], 76%.

As to `CNCc1ccccc1-c1csc([C@@H](C)Nc2nc(C)nc3cc(OC)c(OC)cc23)c1` [BAY-293], the -TdeltaS in assay [6] turned out to be 5.5 kcal/mol.
